Measurements as given in the supplement of paper PMC10307832.

How the values were obtained:
Assay in all cases: relative viability (nuclei count vs DMSO), 5 days (fraction); higher = more cells survive
[1] = compound: C/C(=N\NC(=S)N1CCC1)/C2=CC=CC=N2 + CC1(C)CCC(c2ccc(Cl)cc2)=C(CN2CCN(c3ccc(C(=O)NS(=O)(=O)c4ccc(N[C@H](CCN5CCOCC5)CSc5ccccc5)c(S(=O)(=O)C(F)(F)F)c4)cc3)CC2)C1 [Navitoclax] (partner 0.5 µM)
How it was run: (§1)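 Lung cancer cell lines were pin-tool dosed in 1536-well plates on the day after seeding, with either a lone drug or a fixed anchor-drug dose plus five library-drug doses (not always all listed) in √10 steps. Nuclei were counted on 4× images after 5 days. Relative viability is the ratio of treated-well to vehicle-well nuclei counts, with each value a median of duplicate plates.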

[2] = compound: C/C(=N\NC(=S)N1CCC1)/C2=CC=CC=N2 + CCNC(=O)c1noc(-c2cc(C(C)C)c(O)cc2O)c1-c1ccc(CN2CCOCC2)cc1 [Luminespib] (partner 0.01 µM)
How it was run: as §1

[3] = compound: C/C(=N\NC(=S)N1CCC1)/C2=CC=CC=N2 + COc1cc2c(Oc3ccc(NC(=O)C4(C(=O)Nc5ccc(F)cc5)CC4)cc3F)ccnc2cc1OCCCN1CCOCC1 [Foretinib] (partner 0.25 µM)
How it was run: as §1

[4] = compound: C/C(=N\NC(=S)N1CCC1)/C2=CC=CC=N2 + C[C@]1(O)C[C@@H](c2nc(-c3ccc4ccc(-c5ccccc5)nc4c3)c3c(N)nccn32)C1 [Linsitinib] (partner 1 µM)
How it was run: as §1

| Cell Line | relative viability ([1]; first compound 0.05 µM) | relative viability ([1]; first compound 0.1581 µM) | relative viability ([1]; first compound 0.5 µM) | relative viability ([1]; first compound 1.581 µM) | relative viability ([1]; first compound 5 µM) | relative viability ([2]; first compound 0.05 µM) | relative viability ([2]; first compound 0.1581 µM) | relative viability ([2]; first compound 0.5 µM) | relative viability ([2]; first compound 1.581 µM) | relative viability ([2]; first compound 5 µM) | relative viability ([3]; first compound 0.05 µM) | relative viability ([3]; first compound 0.1581 µM) | relative viability ([3]; first compound 0.5 µM) | relative viability ([3]; first compound 1.581 µM) | relative viability ([3]; first compound 5 µM) | relative viability ([4]; first compound 0.05 µM) | relative viability ([4]; first compound 0.1581 µM) | relative viability ([4]; first compound 0.5 µM) | relative viability ([4]; first compound 1.581 µM) | relative viability ([4]; first compound 5 µM) |
| --- | --- | --- | --- | --- | --- | --- | --- | --- | --- | --- | --- | --- | --- | --- | --- | --- | --- | --- | --- | --- |
| NCI-H1734 | 0.0989 | 0.104 | 0.0882 | 0.0843 | 0.0776 | 0.123 | 0.105 | 0.116 | 0.118 | 0.117 | 0.166 | 0.162 | 0.203 | 0.129 | 0.102 | 0.141 | 0.183 | 0.16 | 0.142 | 0.131 |
| NCI-H1755 | 0.321 | 0.928 | 0.142 | 0.18 | 0.186 | 0.191 | 0.184 | 0.198 | 0.243 | 0.275 | 0.518 | 0.35 | 0.283 | 0.268 | 0.258 | 0.528 | 0.959 | 0.194 | 0.22 | 0.215 |
| NCI-H1793 | 0.225 | 0.208 | 0.19 | 0.149 | 0.225 | 0.214 | 0.142 | 0.103 | 0.119 | 0.141 | 0.229 | 0.382 | 0.157 | 0.143 | 0.188 | 0.22 | 0.233 | 0.132 | 0.142 | 0.167 |
| NCI-H1915 | 0.522 | 0.742 | 0.169 | 0.15 | 0.137 | 0.126 | 0.108 | 0.111 | 0.121 | 0.107 | 0.366 | 0.675 | 0.216 | 0.192 | 0.173 | 0.523 | 1.03 | 0.228 | 0.176 | 0.153 |
| NCI-H1944 | 0.684 | 0.988 | 0.392 | 0.189 | 0.18 | 0.527 | 0.265 | 0.143 | 0.124 | 0.113 | 0.624 | 0.38 | 0.181 | 0.143 | 0.166 | 0.875 | 1.06 | 0.6 | 0.259 | 0.196 |
| NCI-H1975 | 0.169 | 0.143 | 0.152 | 0.163 | 0.168 | 0.118 | 0.148 | 0.206 | 0.107 | 0.151 | 0.137 | 0.143 | 0.129 | 0.124 | 0.124 | 0.157 | 0.151 | 0.145 | 0.158 | 0.163 |
| NCI-H1993 | 0.664 | 0.662 | 0.638 | 0.511 | 0.533 | 0.455 | 0.496 | 0.517 | 0.428 | 0.509 | 0.542 | 0.516 | 0.567 | 0.631 | 0.526 | 0.643 | 0.703 | 0.58 | 0.614 | 0.53 |
| NCI-H2009 | 0.1 | 0.136 | 0.0927 | 0.158 | 0.131 | 0.128 | 0.146 | 0.15 | 0.186 | 0.127 | 0.143 | 0.183 | 0.186 | 0.213 | 0.184 | 0.139 | 0.163 | 0.154 | 0.165 | 0.138 |
| NCI-H2023 | 0.0701 | 0.096 | 0.0791 | 0.0888 | 0.0996 | 0.067 | 0.0631 | 0.0621 | 0.0569 | 0.0694 | 0.0821 | 0.0789 | 0.0763 | 0.0636 | 0.077 | 0.1 | 0.0863 | 0.0724 | 0.0807 | 0.0886 |
| NCI-H2085 | 0.246 | 0.248 | 0.245 | 0.248 | 0.281 | 0.236 | 0.274 | 0.281 | 0.234 | 0.211 | 0.322 | 0.373 | 0.296 | 0.269 | 0.253 | 0.222 | 0.307 | 0.242 | 0.223 | 0.215 |
| NCI-H2087 | 0.248 | 0.212 | 0.185 | 0.146 | 0.18 | 0.116 | 0.0944 | 0.159 | 0.142 | 0.137 | 0.185 | 0.178 | 0.193 | 0.15 | 0.121 | 0.305 | 0.37 | 0.301 | 0.244 | 0.178 |
| NCI-H2126 | 0.328 | 0.828 | 0.265 | 0.281 | 0.27 | 0.201 | 0.201 | 0.198 | 0.178 | 0.225 | 0.223 | 0.167 | 0.167 | 0.213 | 0.201 | 0.277 | 0.724 | 0.268 | 0.223 | 0.246 |
| NCI-H2228 | 0.181 | 0.132 | 0.13 | 0.117 | 0.123 | 0.168 | 0.119 | 0.129 | – | 0.158 | 0.227 | 0.129 | 0.145 | – | 0.113 | 0.179 | 0.273 | 0.233 | 0.144 | 0.213 |
| NCI-H2347 | 0.214 | 0.263 | 0.195 | 0.16 | 0.193 | 0.263 | 0.238 | 0.213 | 0.251 | 0.235 | 0.321 | 0.391 | 0.312 | 0.31 | 0.28 | 0.295 | 0.372 | 0.325 | 0.255 | 0.314 |
| NCI-H2405 | 0.0935 | 0.0799 | 0.114 | 0.256 | 0.246 | 0.218 | 0.245 | 0.287 | 0.242 | 0.283 | 0.263 | 0.313 | 0.31 | 0.251 | 0.264 | 0.193 | 0.207 | 0.31 | 0.225 | 0.223 |
| NCI-H3122 | 0.132 | 0.137 | 0.156 | 0.247 | 0.216 | 0.0803 | 0.063 | 0.0978 | 0.134 | 0.11 | 0.101 | 0.0817 | 0.0973 | 0.149 | 0.158 | 0.145 | 0.143 | 0.169 | 0.246 | 0.221 |
